For eight molecules, GI50 and TGI results are on record in PubChem BioAssay (NCI).

Common to all, as to test: NCI tumour cell line growth inhibition, 48 h
Assay [1] has as its system EKVX NSCLC.
For assay [2], the system named is HL-60(TB) leukemia.
For assay [3], the system named is IGROV1 ovarian.
Assay [4] relates to MCF7 breast.
Assay [5] has as its system MOLT-4 leukemia.
The subject of assay [6] is NCI-H226 lung.
For assay [7], the system named is OVCAR-5 ovarian.
The subject of assay [8] is SK-MEL-2 melanoma.
Assay [9] relates to SW-620 colon.
Assay [10] concerns UACC-62 melanoma.

SMILES strings stand for the structures. Where “and” joins values, the source holds several entries; their conditions need not be identical. Equal values may be shown once.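 Dose response: 5 concentrations. Exposure: 48 h. Format: 96-well plates. Endpoint: linear interpolation; highest concentration if not reached. GI50: concentration for 50% inhibition of growth. TGI marks complete inhibition of growth.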 Some results are limits rather than exact numbers.

Turning to `COc1ccc(CN2C(=O)/C(=C\c3cc(OC)c(OC)c(OC)c3)c3cc(OC)ccc32)cc1`, the GI50 was 3.83 µM in assay [1]; 3.28 µM in assay [2]; 1.8 µM in assay [3]; 2.91 µM in assay [4]; 4.07 µM in assay [5]; 3.93 µM in assay [6]. The GI50 was 2.47 µM in assay [7], 1.92 µM in [8], 1.82 µM in [9] and 1.71 µM in assay [10]. In addition, the TGI in assay [1] is above 65.6 µM; in [2] it was above 28.5 µM; in [3] it was 4.06 µM; in assay [4], 11.8 µM; in assay [5] it was above 100 µM; in assay [6], 22.8 µM. The TGI in [7] came out at 5.51 µM; in assay [8], 4.01 µM; in assay [9], 3.41 µM; in assay [10], 4.19 µM.
For `CCC1=C(C)/C(=C/c2[nH]c(C)c(C(=O)CCCCC(=O)OC)c2C)N=C1c1ccc[nH]1`, the GI50 in assay [1] is 12.2 µM; in [2], 2.53 µM; in [3], 21.5 µM; in [4], 12.1 µM; in assay [5], 0.995 µM; in [6], 17.6 µM. The GI50 is 21.1 µM in [7], 19.4 µM in [8], 2.18 µM in assay [9] and 8.7 µM in [10]. The TGI in assay [1] is 32 µM; in assay [2] it was 9.28 µM; in assay [3] it was above 63.8 µM; in assay [4] it was 46.4 µM; in [5], 6.92 µM; in [6], 51.3 µM. In addition, the TGI is above 67.2 µM in [7], 46.2 µM in [8], 4.82 µM in assay [9] and 38.9 µM in assay [10].
Consider `O=C(/C=C/c1ccco1)c1ccc(Nc2nc(Nc3ccc(F)cc3)nc(Nc3ccc(Cl)cc3)n2)cc1`, for which the GI50 in assay [1] was above 32.1 µM; in assay [2], above 42.3 µM; in [3] it was 25.8 µM; in assay [4], 1.84 µM; in assay [5], above 19.8 µM; in assay [6], above 35.4 µM. The GI50 is above 100 µM in [7], above 49.8 µM in assay [8], 24.5 µM in assay [9] and above 37.4 µM in assay [10]. Besides, the TGI was above 60.2 µM in assay [1]; 98.8 µM in [2]; above 81 µM in assay [3]; 34.1 µM in assay [4]; above 49.7 µM in [5]; above 82.2 µM in assay [6]. Further, the TGI in [7] was above 100 µM; in [8], above 100 µM; in assay [9], above 63.3 µM; in [10], above 59.5 µM.
Take `Cc1ccc(C)c(NC(=O)C(=O)C2C(=O)C3=C(CC2(C)C)Nc2ccccc2S3)c1` (stereo not given): the TGI in assay [1], in [2], in assay [3], in [4], in assay [5] and in [6] was above 100 µM each time. For the same molecule, the TGI in [7], in assay [8], in [9] and in [10] was above 100 µM throughout.
`Cc1[nH]c(=O)[nH]c(=O)c1N(CCF)CCCl`: the GI50 in assay [1] was 165 µM and 406 µM and 557 µM; in [2], 42.6 µM; in assay [3], 284 µM; in assay [4] it was 140 µM; in [5] it was 60.8 µM and 80.6 µM and 43.1 µM; in assay [6], 249 µM. Moreover, the GI50 was 329 µM and 400 µM in assay [7]; 239 µM in assay [8]; 321 µM and 289 µM and 147 µM in assay [9]; 173 µM and 360 µM in [10]. Further, the TGI in assay [1] is 443 µM and 762 µM and 1200 µM; in assay [2], 246 µM and 302 µM and 219 µM; in assay [3], 793 µM and 1260 µM and 1270 µM; in [4], 502 µM and > 250 µM and 851 µM; in assay [5], 254 µM and 393 µM and 563 µM; in assay [6], 584 µM and 1960 µM and 1390 µM. For the same molecule, the TGI in [7] was 676 µM and 976 µM and 1200 µM; in [8], 447 µM and 832 µM and 808 µM; in assay [9], 1100 µM and 805 µM; in assay [10], 419 µM and 1040 µM and 673 µM.
Regarding `O=C1c2ccccc2-c2c1c1ccccc1c(=O)n2Cc1ccco1`, the TGI in assay [1], in assay [2], in assay [3], in assay [4], in assay [5] and in [6] was above 100 µM each time. In addition, the TGI in assay [7], in [8], in assay [9] and in assay [10] was above 100 µM throughout.
Regarding `Oc1ccc2ccccc2c1C=NCCCN=Cc1c(O)ccc2ccccc12`, the GI50 in assay [1] was 17.3 µM; in assay [2], 24.1 µM; in assay [3], 28.1 µM; in assay [4], 17.1 µM; in assay [5] it was 10.3 µM; in assay [6] it was 0.829 µM. In addition, the GI50 in [7] was 28.4 µM; in [8], 12.6 µM; in assay [9], 12.1 µM; in [10], 4.27 µM. Besides, the TGI is above 100 µM in assay [1]; above 100 µM in [2]; above 100 µM in assay [3]; above 100 µM in [4]; 56.9 µM in assay [5]; 12.9 µM in assay [6]. Also, the TGI was found to be 81.4 µM in [7], 37.2 µM in [8], 61.8 µM in assay [9] and 16.8 µM in assay [10].
For the molecule `CCNC(=O)C[C@@H]1N=C(c2ccc(Cl)cc2)c2cc(OC)ccc2-n2c(C)nnc21`, the GI50 in assay [1] was above 100 µM; in assay [2] it was 0.275 µM; in assay [3], 12.2 µM; in assay [4], 0.532 µM; in assay [5], above 44.2 µM; in [6], above 32.8 µM. Moreover, the GI50 is above 100 µM in [7], 3.28 µM in [8], above 31 µM in assay [9] and 0.618 µM in [10]. Also, the TGI in [1] is above 100 µM; in [2], 38.1 µM; in [3], above 100 µM; in assay [4], above 100 µM; in assay [5] it was above 100 µM; in [6], above 100 µM. Further, the TGI in assay [7], in assay [8], in assay [9] and in assay [10] was above 100 µM each time.
